Test results taken from US9221796B2, “Selective NR2B antagonists” (BRISTOL-MYERS SQUIBB COMPANY, priority 2014, dated 2015).

target: NR2B-subtype NMDA receptors (Rattus norvegicus (Rat), UniProt P35439+Q00960); assay: Radioligand binding assay (3H Ro 25-6981 competition, forebrain membranes); details: 3H Ro 25-6981 (4 nM), read-out: NR2B Binding Ki
Experimental: Radioligand Binding Assay. […] Buchy D; Klingelschmidt A; Messer J; Bleuel Z; Kemp J A; Richards J G. […] Thawed brains were homogenized using a Dounce homogenizer and centrifuged at 48000×g for 20 min. The pellet was resuspended in cold buffer and homogenized again using a Dounce homogenizer. […] After incubation for 1 hr at room temperature, the membrane bound radioligand was harvested on to GF/B filter plates (treated with 0.5% PEI for 1 hr at room temperature). The filter plates were dried at 50° C. for 20 mins, incubated with microscint 20 for 10 minutes and finally, the counts were read on TopCount (Perkin Elmer). […] CPM values were converted to % inhibition and the concentration response curves were plotted using custom made software. Each experiment was repeated at least twice to obtain the final binding Ki values for experimental compounds.

NR2B-subtype NMDA receptors, sequence (Q00960 27-1482, other chains not shown): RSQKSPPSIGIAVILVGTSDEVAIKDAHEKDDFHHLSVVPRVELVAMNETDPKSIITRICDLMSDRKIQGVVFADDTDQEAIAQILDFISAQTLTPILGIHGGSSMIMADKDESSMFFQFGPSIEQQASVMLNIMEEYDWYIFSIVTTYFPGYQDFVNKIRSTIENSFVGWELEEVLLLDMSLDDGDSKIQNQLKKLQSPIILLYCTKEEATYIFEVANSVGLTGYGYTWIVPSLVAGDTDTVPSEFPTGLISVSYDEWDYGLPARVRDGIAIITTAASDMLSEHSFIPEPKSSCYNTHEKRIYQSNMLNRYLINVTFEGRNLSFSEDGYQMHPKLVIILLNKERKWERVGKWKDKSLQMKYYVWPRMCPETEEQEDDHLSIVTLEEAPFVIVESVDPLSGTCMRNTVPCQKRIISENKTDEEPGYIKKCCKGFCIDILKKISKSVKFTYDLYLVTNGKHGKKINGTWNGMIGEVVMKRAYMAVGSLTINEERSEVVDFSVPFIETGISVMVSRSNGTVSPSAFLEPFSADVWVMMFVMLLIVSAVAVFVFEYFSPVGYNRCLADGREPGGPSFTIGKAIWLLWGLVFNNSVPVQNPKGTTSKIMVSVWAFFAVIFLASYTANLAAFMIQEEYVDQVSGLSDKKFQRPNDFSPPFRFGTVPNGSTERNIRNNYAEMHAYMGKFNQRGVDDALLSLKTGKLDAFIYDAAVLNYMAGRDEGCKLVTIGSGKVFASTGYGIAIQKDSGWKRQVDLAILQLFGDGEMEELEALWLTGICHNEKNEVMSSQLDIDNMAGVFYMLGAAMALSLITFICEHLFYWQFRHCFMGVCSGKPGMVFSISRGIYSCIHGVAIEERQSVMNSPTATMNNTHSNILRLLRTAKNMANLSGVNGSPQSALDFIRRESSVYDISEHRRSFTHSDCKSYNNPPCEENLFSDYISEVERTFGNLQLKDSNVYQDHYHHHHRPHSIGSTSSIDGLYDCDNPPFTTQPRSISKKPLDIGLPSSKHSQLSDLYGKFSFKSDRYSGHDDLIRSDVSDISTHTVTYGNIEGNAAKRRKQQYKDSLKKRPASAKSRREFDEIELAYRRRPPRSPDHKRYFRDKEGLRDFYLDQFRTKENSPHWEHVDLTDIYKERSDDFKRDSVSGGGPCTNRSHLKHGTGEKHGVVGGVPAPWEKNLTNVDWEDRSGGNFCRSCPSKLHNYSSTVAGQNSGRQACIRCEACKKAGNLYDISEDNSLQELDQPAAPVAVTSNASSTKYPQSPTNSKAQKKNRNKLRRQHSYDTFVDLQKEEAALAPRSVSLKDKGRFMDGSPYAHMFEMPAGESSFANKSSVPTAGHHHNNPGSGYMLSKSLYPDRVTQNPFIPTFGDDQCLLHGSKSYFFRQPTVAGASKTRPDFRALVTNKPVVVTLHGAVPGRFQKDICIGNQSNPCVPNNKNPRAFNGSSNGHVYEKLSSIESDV

SMILES | Ki
O=C1C(N2CCC(c3ccc(O)cc3)C(F)(F)C2)CCN1Cc1ccccc1 (single isomer, unassigned) [Example 91, P-1, 1-Benzyl-3-(3,3-difluoro-4-(4-hydroxyphenyl)piperidin-1-yl)pyrrolidin-2-one] | 76 nM
O=C1C(N2CCC(c3ccc(O)cc3)C(F)(F)C2)CCN1Cc1ccccc1 (single isomer, unassigned) [Example 91, P-2, 1-Benzyl-3-(3,3-difluoro-4-(4-hydroxyphenyl)piperidin-1-yl)pyrrolidin-2-one] | 14 nM
O=C1[C@@H](N2CCC(c3ccc(O)cc3)C(F)(F)C2)CCN1Cc1ccc(C(F)(F)F)cc1 (single isomer, unassigned) [Example 99, P-1] | 380 nM
O=C1[C@@H](N2CCC(c3ccc(O)cc3)C(F)(F)C2)CCN1Cc1ccc(Cl)c(F)c1 (single isomer, unassigned) [Example 107, P-1] | 1200 nM
O=C1[C@H](N2CCC(c3ccc(O)cc3)C(F)(F)C2)CCN1Cc1ccc(Cl)c(F)c1 (single isomer, unassigned) [Example 107, P-2] | 7.7 nM
O=C1[C@@H](N2CCC(c3ccc(O)cc3)C(F)(F)C2)CCN1Cc1ccc(F)c(F)c1 (single isomer, unassigned) [Example 108, P-1] | 1200 nM
O=C1[C@H](N2CCC(c3ccc(O)cc3)C(F)(F)C2)CCN1Cc1ccc(F)c(F)c1 (single isomer, unassigned) [Example 108, P-2] | 15 nM
O=C1C(N2CCC(c3ccc(O)cc3)C(F)(F)C2)CCN1Cc1ccc(C(F)(F)F)cc1 (stereo in doubt) [Example 99, P-2, (3S)-3-(3,3-Difluoro-4-(4-hydroxyphenyl)piperidin-1-yl)-1-(4-(trifluoromethyl)benzyl)-pyrrolidin-2-one] | 22 nM
O=C1[C@@H](N2CCC(c3ccc(O)cc3)CC2)CCN1Cc1ccc(F)cc1 [Example 2a, (S)-1-(4-Fluorobenzyl)-3-(4-(4-hydroxyphenyl)-piperidin-1-yl)pyrrolidin-2-one] | 740 nM
O=C1[C@H](N2CCC(c3ccc(O)cc3)CC2)CCN1Cc1ccc(F)cc1 [Example 2b, (R)-1-(4-Fluorobenzyl)-3-(4-(4-hydroxyphenyl)piperidin-1-yl)pyrrolidin-2-one] | 1.4 nM
Cc1ccc(CN2CCC(N3CCCC(c4ccc(O)cc4)C3)C2=O)cc1 (stereo not drawn) [Example 3, 1-(4-Methylbenzyl)-3-(3-(4-hydroxyphenyl)piperidin-1-yl)pyrrolidin-2-one] | 1320 nM
O=C1C(N2CCCC(c3ccc(O)cc3)C2)CCN1Cc1ccc(F)cc1 (stereo not drawn) [Example 4, 1-(4-Fluorobenzyl)-3-(3-(4-hydroxyphenyl)piperidin-1-yl)pyrrolidin-2-one] | ≥ 5000 nM
O=C1[C@@H](N2CCC(c3ccc(O)cc3)CC2)CCN1Cc1ccc(F)c(F)c1 [Example 6a, (S)-1-(3,4-Difluorobenzyl)-3-(4-(4-hydroxyphenyl)piperidin-1-yl)pyrrolidin-2-one] | 850 nM
O=C1[C@H](N2CCC(c3ccc(O)cc3)CC2)CCN1Cc1ccc(F)c(F)c1 [Example 6b, (R)-1-(3,4-Difluorobenzyl)-3-(4-(4-hydroxyphenyl)piperidin-1-yl)pyrrolidin-2-one] | 4.7 nM
O=C1C(N2CCC(c3ccc(O)cc3)CC2)CCN1Cc1ccc(OC(F)F)cc1 (stereo not drawn) [Example 7, 1-(4-(Difluoromethoxy)benzyl)-3-(4-(4-hydroxyphenyl)piperidin-1-yl)pyrrolidin-2-one] | 37 nM
O=C1C(N2CCC(c3ccc(O)cc3)C(O)C2)CCN1Cc1ccc(F)cc1 (stereo not drawn) [Example 8, 1-(4-Fluorobenzyl)-3-(3-hydroxy-4-(4-hydroxyphenyl)piperidin-1-yl)pyrrolidin-2-one] | 420 nM
O=C1C(N2CC(c3ccc(O)cc3)C2)CCN1Cc1ccc(F)c(F)c1 (stereo not drawn) [Example 10, 1-(3,4-Difluorobenzyl)-3-(3-(4-hydroxyphenyl)azetidin-1-yl)pyrrolidin-2-one] | 1020 nM
O=C1C(N2CC(c3ccc(O)cc3)C2)CCN1Cc1ccc(F)cc1 (stereo not drawn) [Example 11, 1-(4-Fluorobenzyl)-3-(3-(4-hydroxyphenyl)azetidin-1-yl)pyrrolidin-2-one] | 510 nM
O=C1C(N2CCC(c3ccc(O)cc3)CC2)CCN1Cc1ccccc1 (stereo not drawn) [Example 12, 1-Benzyl-3-(4-(4-hydroxyphenyl)piperidin-1-yl)pyrrolidin-2-one] | 4 nM
O=C1[C@@H](N2CCC(c3ccc(O)cc3)CC2)CCN1Cc1ccccc1 [Example 13a, (S)-1-Benzyl-3-(4-(4-hydroxyphenyl)piperidin-1-yl)pyrrolidin-2-one] | 41 nM
O=C1[C@H](N2CCC(c3ccc(O)cc3)CC2)CCN1Cc1ccccc1 [Example 13b, (R)-1-Benzyl-3-(4-(4-hydroxyphenyl)piperidin-1-yl)pyrrolidin-2-one] | 1.6 nM

SMILES | Ki
O=C1C(N2CCC(c3ccc(O)cc3)CC2)CCN1Cc1ccc(Cl)c(F)c1 (stereo not drawn) [Example 15, 1-(4-Chloro-3-fluorobenzyl)-3-(4-(4-hydroxyphenyl)piperidin-1-yl)pyrrolidin-2-one] | 12 nM
O=C1C(N2CC(c3ccc(O)cc3)C2)CCN1Cc1ccccc1 (stereo not drawn) [Example 16, 1-Benzyl-3-(3-(4-hydroxyphenyl)azetidin-1-yl)pyrrolidin-2-one] | 560 nM
O=C1[C@@H](N2CCC(c3ccc(O)cc3)CC2)CCN1Cc1ccc(Cl)cc1 [Example 18a, (S)-1-(4-Chlorobenzyl)-3-(4-(4-hydroxyphenyl)piperidin-1-yl)pyrrolidin-2-one] | 170 nM
O=C1[C@H](N2CCC(c3ccc(O)cc3)CC2)CCN1Cc1ccc(Cl)cc1 [Example 18b, (R)-1-(4-Chlorobenzyl)-3-(4-(4-hydroxyphenyl)piperidin-1-yl)pyrrolidin-2-one] | 1.5 nM
Cc1ccc(CN2CCC(N3CCC(c4ccc(O)cc4)CC3)C2=O)cc1F (stereo not drawn) [Example 19, 1-(3-Fluoro-4-methylbenzyl)-3-(4-(4-hydroxyphenyl)piperidin-1-yl)pyrrolidin-2-one] | 3.9 nM
Cc1ccc(CN2CCC(N3CC(c4ccc(O)cc4)C3)C2=O)cc1F (stereo not drawn) [Example 20, 1-(3-Fluoro-4-methylbenzyl)-3-(3-(4-hydroxyphenyl)azetidin-1-yl)pyrrolidin-2-one] | 43 nM
Cc1ccc(CN2CC[C@@H](N3CC(c4ccc(O)cc4)C3)C2=O)cc1F [Example 21a, (R)-1-(3-Fluoro-4-methylbenzyl)-3-(3-(4-hydroxyphenyl)azetidin-1-yl)pyrrolidin-2-one] | 37 nM
Cc1ccc(CN2CC[C@H](N3CC(c4ccc(O)cc4)C3)C2=O)cc1F [Example 21b, (S)-1-(3-Fluoro-4-methylbenzyl)-3-(3-(4-hydroxyphenyl)azetidin-1-yl)pyrrolidin-2-one] | 410 nM
O=C1C(N2CCC(c3ccc(O)cc3)CC2)CCN1Cc1ccc(O)cc1 (stereo not drawn) [Example 24, 1-(4-Hydroxybenzyl)-3-(4-(4-hydroxyphenyl)piperidin-1-yl)pyrrolidin-2-one] | 4.7 nM
O=C1[C@@H](N2CCC(c3ccc(O)cc3)CC2)CCN1Cc1ccc(O)cc1 [Example 25a, (S)-1-(4-Hydroxybenzyl)-3-(4-(4-hydroxyphenyl)piperidin-1-yl)pyrrolidin-2-one] | 1200 nM
O=C1[C@H](N2CCC(c3ccc(O)cc3)CC2)CCN1Cc1ccc(O)cc1 [Example 25b, (R)-1-(4-Hydroxybenzyl)-3-(4-(4-hydroxyphenyl)piperidin-1-yl)pyrrolidin-2-one] | 5.3 nM
Cc1ccc(CN2CCC(N3CCC(c4ccc(O)cc4)CC3)C2=O)cc1C (stereo not drawn) [Example 26, 1-(3,4-Dimethylbenzyl)-3-(4-(4-hydroxyphenyl)piperidin-1-yl)pyrrolidin-2-one] | 31 nM
Cc1ccc(CN2CCC(N3CC(c4ccc(O)cc4)C3)C2=O)cc1 (stereo not drawn) [Example 27, 3-(3-(4-Hydroxyphenyl)azetidin-1-yl)-1-(4-methylbenzyl)pyrrolidin-2-one] | 20 nM
Cc1ccc(CN2CC[C@H](N3CC(c4ccc(O)cc4)C3)C2=O)cc1 [Example 28a, (S)-3-(3-(4-Hydroxyphenyl)azetidin-1-yl)-1-(4-methylbenzyl)pyrrolidin-2-one] | 420 nM
Cc1ccc(CN2CC[C@@H](N3CC(c4ccc(O)cc4)C3)C2=O)cc1 [Example 28b, (R)-3-(3-(4-Hydroxyphenyl)azetidin-1-yl)-1-(4-methylbenzyl)-pyrrolidin-2-one] | 10 nM
Cc1cc(O)ccc1C1CCN(C2CCN(Cc3ccccc3)C2=O)CC1 (stereo not drawn) [Example 29, 1-Benzyl-3-(4-(4-hydroxy-2-methylphenyl)piperidin-1-yl)pyrrolidin-2-one] | 78 nM
O=C1C(N2CCC(c3ccc(O)c(F)c3)CC2)CCN1Cc1ccccc1 (stereo not drawn) [Example 30, 1-Benzyl-3-(4-(3-fluoro-4-hydroxyphenyl)piperidin-1-yl)pyrrolidin-2-one] | 4.7 nM
O=C1C(N2CCCCC(c3ccc(O)cc3)C2)CCN1Cc1ccc(F)cc1 (stereo not drawn) [Example 31, 1-(4-Fluorobenzyl)-3-(3-(4-hydroxyphenyl)azepan-1-yl)pyrrolidin-2-one] | 800 nM
C[C@@H](c1ccccc1)N1CCC(N2CCC(c3ccc(O)cc3)CC2)C1=O (stereo partly drawn) [Example 32, 3-(4-(4-Hydroxyphenyl)piperidin-1-yl)-1-((S)-1-phenylethyl)pyrrolidin-2-one] | 100 nM
C[C@@H](c1ccccc1)N1CC[C@H](N2CCC(c3ccc(O)cc3)CC2)C1=O [Example 33a, (S)-3-(4-(4-Hydroxyphenyl)piperidin-1-yl)-1-((S)-1-phenylethyl)pyrrolidin-2-one] | ≥ 5000 nM
C[C@@H](c1ccccc1)N1CC[C@@H](N2CCC(c3ccc(O)cc3)CC2)C1=O [Example 33b, (R)-3-(4-(4-Hydroxyphenyl)piperidin-1-yl)-1-((S)-1-phenylethyl)pyrrolidin-2-one] | 44 nM
